From patent US20240254119A1 (THIRD HARMONIC BIO, INC., priority 2022, published 2024)

What was measured:
[1] = target: T1, wtKIT (Homo sapiens, UniProt P10721); experiment: Caliper biochemical assay, wtKIT; conditions: Table 6, read-out: KIT Biochemical IC50 avg
T1 construct: 1888289AM in the reaction mixtures
Experimental: (§1) Enzyme, substrate, and cofactors (ATP and Mn^2+) are combined in a well of a microtiter plate and incubated for 3 hours at 25° C. At the end of the incubation, the reaction is quenched by the addition of an EDTA-containing buffer. Substrate and product are separated electrophoretically using the microfluidic-based LabChip 3000 Drug Discovery System from Caliper Life Sciences* and quantitated by fluorescence intensity.
(§2) The substrate used in the CSF-1R and PDGFRα assay is FAM-[…]-CONH2 (FAM is carboxyfluorescein). Peptide should be >95% purity. The substrate for the KIT assay is FAM-[…]-NH2.
(§3) • 1. To a well of a 384-well plate add 5 μL of 2× enzyme buffer (or control) • 2. Add 100 nL of 100× compound. • 3. Add 5 μL of 2× substrate buffer. • 4. Incubate plate at 25° C. for 3 hours. • 5. Add 10 uL of […]. • 6. Read plate LabChip 3000 Drug Discovery System
(§4) • 3 hours at 25° C. where 100% Inhibitor: No enzyme.
• 100 mM HEPES, pH 7.5 0.1% BSA • 0.01% Triton X-100 • 1 mM DTT • 10 mM MnCl2 • 10 μM Sodium Orthovanadate • 10 μM Beta-Glycerophosphate • 400 μM ATP • 1% DMSO (from compound) • 1 μM FAM-[…]-CONH2 5.0 nM wtKIT Enzyme (1888289AM)* • *Specific activity may vary from lot to lot. Enzyme concentration may need to be adjusted to yield 10-20% conversion of substrate to product.

[2] = Kinetic solubility assay; assay type: physicochemical; conditions: kinetic solubility, 50 mM PB (pH 7.4), shaken 24 hours at RT
Procedure, shortened: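 Test compounds from 10 mM DMSO stock were diluted in 50 mM phosphate buffer, pH 7.4, and shaken for 24 h at RT. After PTFE filtration and centrifugation, filtrate concentration was quantified by UPLC-UV/HPLC-UV against a standard curve.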

[3] = target: T2, CSF-1R (Homo sapiens, UniProt P07333); experiment: Caliper biochemical assay, CSF-1R; conditions: Table 6
T2 construct: purchased Invitrogen PV3249 (lot 662393N)
T2 sequence (P07333 20-972): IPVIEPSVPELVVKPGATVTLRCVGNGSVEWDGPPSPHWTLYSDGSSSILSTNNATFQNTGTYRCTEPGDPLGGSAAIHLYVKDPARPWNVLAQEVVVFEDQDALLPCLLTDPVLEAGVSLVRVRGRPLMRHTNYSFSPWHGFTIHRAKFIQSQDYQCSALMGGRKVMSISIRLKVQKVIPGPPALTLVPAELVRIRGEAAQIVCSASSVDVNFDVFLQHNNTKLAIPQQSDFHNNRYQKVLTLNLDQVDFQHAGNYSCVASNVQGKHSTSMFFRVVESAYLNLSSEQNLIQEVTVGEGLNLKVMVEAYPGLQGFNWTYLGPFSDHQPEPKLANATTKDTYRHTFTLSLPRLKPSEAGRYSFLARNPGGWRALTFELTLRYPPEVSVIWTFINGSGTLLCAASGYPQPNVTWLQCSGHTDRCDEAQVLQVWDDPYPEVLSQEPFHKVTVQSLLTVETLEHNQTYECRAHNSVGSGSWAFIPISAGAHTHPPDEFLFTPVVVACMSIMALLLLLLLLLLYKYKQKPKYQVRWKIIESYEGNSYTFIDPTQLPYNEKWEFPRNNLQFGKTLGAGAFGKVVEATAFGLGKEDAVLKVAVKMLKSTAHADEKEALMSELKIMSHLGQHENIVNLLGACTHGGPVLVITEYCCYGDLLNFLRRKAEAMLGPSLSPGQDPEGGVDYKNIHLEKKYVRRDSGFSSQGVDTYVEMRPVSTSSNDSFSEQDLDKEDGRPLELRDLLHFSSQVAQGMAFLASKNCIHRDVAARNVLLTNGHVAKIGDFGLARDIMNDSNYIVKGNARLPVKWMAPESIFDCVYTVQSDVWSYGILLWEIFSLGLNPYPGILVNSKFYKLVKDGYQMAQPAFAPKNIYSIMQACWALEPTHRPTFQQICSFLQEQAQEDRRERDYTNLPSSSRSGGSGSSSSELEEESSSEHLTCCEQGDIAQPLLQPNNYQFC
Experimental: as §1, §2, §3, §4

[4] = target: T3, PDGFRα (Homo sapiens, UniProt P16234); experiment: Caliper biochemical assay, PDGFRα; conditions: Table 6
T3 construct: purchased Millipore 14-467 (lot 26321_ACTI)
T3 sequence (P16234 24-1089): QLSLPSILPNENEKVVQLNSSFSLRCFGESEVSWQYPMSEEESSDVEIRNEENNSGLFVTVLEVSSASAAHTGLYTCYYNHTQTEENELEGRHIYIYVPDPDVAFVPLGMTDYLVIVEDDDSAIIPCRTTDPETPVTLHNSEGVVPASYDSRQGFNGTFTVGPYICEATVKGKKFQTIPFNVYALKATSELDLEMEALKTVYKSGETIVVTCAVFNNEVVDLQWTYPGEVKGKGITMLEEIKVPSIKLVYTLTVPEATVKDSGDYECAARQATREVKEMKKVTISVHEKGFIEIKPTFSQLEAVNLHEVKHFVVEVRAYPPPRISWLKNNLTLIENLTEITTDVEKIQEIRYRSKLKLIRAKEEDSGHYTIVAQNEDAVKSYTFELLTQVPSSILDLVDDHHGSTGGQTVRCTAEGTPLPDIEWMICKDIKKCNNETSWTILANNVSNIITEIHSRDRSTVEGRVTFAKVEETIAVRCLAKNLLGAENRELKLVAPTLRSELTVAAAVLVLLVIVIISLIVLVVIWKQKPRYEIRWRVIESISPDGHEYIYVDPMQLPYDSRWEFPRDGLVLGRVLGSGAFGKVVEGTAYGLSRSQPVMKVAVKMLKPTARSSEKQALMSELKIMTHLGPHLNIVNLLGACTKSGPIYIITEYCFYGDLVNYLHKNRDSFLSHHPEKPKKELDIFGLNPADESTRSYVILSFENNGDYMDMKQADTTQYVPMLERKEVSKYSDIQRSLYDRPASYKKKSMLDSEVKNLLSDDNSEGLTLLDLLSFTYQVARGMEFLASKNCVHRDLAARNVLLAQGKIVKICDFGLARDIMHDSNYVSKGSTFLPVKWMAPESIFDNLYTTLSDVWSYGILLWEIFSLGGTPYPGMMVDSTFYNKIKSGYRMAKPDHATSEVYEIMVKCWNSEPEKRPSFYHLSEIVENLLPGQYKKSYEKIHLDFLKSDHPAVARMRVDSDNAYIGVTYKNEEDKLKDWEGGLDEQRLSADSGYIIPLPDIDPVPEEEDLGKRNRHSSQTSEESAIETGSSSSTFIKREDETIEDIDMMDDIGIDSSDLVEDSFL
Experimental: as §1, §2, §3, §4

[5] = target: T4, BCRP (BCRP-MDCKII monolayer) (Homo sapiens, UniProt Q9UNQ0); experiment: MDCKII-BCRP bidirectional transport assay; assay type: in vitro ADME; conditions: for MDCK-BCRP: Papp A-B: apical to basolateral
T4 construct: host or cells: MDCKII (canine kidney) cells
T4 sequence (Q9UNQ0 1-655): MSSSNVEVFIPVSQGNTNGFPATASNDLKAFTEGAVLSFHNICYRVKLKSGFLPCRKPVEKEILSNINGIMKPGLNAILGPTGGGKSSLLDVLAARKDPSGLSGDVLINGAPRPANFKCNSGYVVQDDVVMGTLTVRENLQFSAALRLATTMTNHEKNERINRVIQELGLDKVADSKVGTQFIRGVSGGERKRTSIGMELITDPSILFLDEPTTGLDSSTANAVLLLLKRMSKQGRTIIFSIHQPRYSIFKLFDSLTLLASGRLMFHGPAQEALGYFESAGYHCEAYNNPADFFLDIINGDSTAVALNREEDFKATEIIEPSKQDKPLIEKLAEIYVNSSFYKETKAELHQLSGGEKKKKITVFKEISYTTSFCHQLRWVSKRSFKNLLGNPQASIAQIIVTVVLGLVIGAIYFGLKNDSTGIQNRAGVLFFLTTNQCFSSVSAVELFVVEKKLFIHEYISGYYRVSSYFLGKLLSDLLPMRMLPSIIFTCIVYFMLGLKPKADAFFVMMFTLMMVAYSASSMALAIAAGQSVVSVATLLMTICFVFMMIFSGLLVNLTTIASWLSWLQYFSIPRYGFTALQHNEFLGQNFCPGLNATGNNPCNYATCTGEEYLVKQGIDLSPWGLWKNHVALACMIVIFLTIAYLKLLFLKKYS
Experimental: Exemplary compounds were tested for cell permeability in Caco-2, MDCKII-MDR1 and MDCKII-BCRP cell lines with efflux transporter engagement inferred from the efflux ratios determined. Procedures and results are described below. […] This feature of certain compounds is in part due to efflux transporter engagement. See, for instance, exemplary such compounds included in data tables below.
The reference compound Teriflunomide and test compounds are tested in the bidirectional assay. Test compound and reference compounds incubations were tested in duplicates.
The transport assay can be performed between days 12 to day 15 using ready to use PreadyPort™ BCRP-MDCKII monolayer in 96 well plate.
The medium was aspirated from the apical and basal compartments and 75 and 235 μL assay buffer was added to each of the 96 wells of apical and basal compartments of the PreadyPort™ plate.
The plates were pre-incubated for 15 min at 37° C. with 5% CO2 in humidified atmosphere. After preincubation the assay buffer was removed from the apical and basal inserts of the plate.
In apical to basolateral (A→B) transport, 75 μL of test or reference compound working solution to apical inserts and 235 μL of blank assay buffer were added to the corresponding basal compartments.
In basolateral to apical transport, 235 μL of test or reference compound working solution to the basal compartments and 75 μL of blank assay buffer solution were added to corresponding apical inserts.
The sandwich plate was incubated for 120 min in incubator at 5% CO2 and 37° C.
After incubation, 60 μL was transferred from receiver and donor compartments to collection plate.
For donor and C0 samples 20-fold dilution was accomplished by mixing 60 μL of collected sample with 1140 μL of transport buffer and from that solution aliquot 60 μL transfer Both receiver and donor samples were processed by adding […] of acetonitrile containing internal standard (60 μL of sample+240 μL of acetonitrile containing glyburide as internal standard, 125 ng/mL) and vortexing the samples. The compound concentration was measured in all samples using respective calibration standards by LC-MS/MS.
Calculate the Papp and recovery using the given formula:
[formula] [formula] • Where: dQ/dt=Permeability rate in μM/see • C0=Initial concentration in μM • A=Membrane surface area (0.33 cm^2) • V=Volume of receiver chamber • Cend, a=concentration in acceptor well at end of incubation • Cend, d=concentration in donor well at end of incubation • CHBSS=loading concentration measured in HBSS

[6] = target: T1, wtKIT; experiment: HTRF biochemical assay, wtKIT (phosphorylation of a peptide substrate); conditions: Table 4
Procedure, shortened: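 wtKIT (5.0 nM) phosphorylating 1 µM FAM-labelled peptide with 400 µM ATP and 10 mM MnCl2 in 100 mM HEPES pH 7.5, 1% DMSO, 3 h at 25 °C. EDTA quench; phosphopeptide detected with anti-phosphotyrosine antibody by HTRF. Enzyme titrated for 10-20% substrate conversion.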

T1 sequence (P10721 26-976): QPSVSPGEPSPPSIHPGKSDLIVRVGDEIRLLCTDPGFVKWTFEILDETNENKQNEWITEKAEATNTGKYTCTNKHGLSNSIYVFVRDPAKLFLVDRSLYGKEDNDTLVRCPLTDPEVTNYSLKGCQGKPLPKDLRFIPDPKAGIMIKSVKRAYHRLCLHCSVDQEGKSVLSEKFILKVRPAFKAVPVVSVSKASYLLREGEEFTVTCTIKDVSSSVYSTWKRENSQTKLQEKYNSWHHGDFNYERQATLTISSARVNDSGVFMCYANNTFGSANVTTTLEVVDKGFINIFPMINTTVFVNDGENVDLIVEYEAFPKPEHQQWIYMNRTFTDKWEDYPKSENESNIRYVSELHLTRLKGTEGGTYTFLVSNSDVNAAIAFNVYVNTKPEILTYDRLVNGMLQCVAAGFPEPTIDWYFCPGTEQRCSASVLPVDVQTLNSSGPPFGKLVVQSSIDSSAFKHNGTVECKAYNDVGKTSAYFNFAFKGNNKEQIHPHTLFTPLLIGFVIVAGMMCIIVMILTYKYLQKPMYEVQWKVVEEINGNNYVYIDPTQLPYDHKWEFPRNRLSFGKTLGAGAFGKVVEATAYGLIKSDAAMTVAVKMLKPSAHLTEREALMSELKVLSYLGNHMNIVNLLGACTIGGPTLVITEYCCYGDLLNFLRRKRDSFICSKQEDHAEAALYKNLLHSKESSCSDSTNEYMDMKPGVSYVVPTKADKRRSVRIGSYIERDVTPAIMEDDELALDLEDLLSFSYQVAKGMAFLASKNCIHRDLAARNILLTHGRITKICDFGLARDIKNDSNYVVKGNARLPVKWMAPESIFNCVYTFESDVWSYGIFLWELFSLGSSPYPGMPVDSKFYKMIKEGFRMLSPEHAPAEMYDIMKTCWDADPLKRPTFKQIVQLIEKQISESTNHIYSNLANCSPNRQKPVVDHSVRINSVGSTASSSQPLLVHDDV

Row | SMILES | IC50 [1] [nM] | IC50 [3] [nM] | IC50 [4] [nM] | MDCK-BCRP: Efflux Ratio [5] | MDCK-BCRP: Papp A-B [5] | IC50 [6] [nM] | Solubility (μM) [2]
1 | Cc1ccc(-c2noc(C3CCN3C(=O)OC(C)(C)C)n2)cc1NC(=O)c1cnc2ccccn12 (racemic) [Compound I-395] | 50 to 500 |  |  | 3.28 | 19 10^−6 cm/s |  | ** (a solubility greater than 10 μM and less than or equal to 50 μM)
2 | COC1CC(c2nc(-c3ccc(C)c(NC(=O)c4cnc5ccccn45)c3)no2)C1 (stereo not drawn) [Compound I-350] | ≤ 50 |  |  | 1.52 | 8.86 10^−6 cm/s |  | ** (a solubility greater than 10 μM and less than or equal to 50 μM)
3 | Cc1ccc(-c2noc(C3CC(S(=O)(=O)N(C)C)C3)n2)cc1NC(=O)c1cnc2ccccn12 (stereo not drawn) [Compound I-211] | ≤ 50 |  |  | 14.1 | 1.91 10^−6 cm/s | 50 to 500 | *** (a solubility greater than 2 μM and less than or equal to 10 μM)
4 | CCOC1CC(c2nc(-c3ccc(C)c(NC(=O)c4cnc5ccccn45)c3)no2)C1 (stereo not drawn) [Compound I-310] | 50 to 500 |  |  | 0.81 | 12 10^−6 cm/s |  | **** (a solubility less than or equal to 2 μM)
5 | Cc1ccc(-c2noc([C@H]3C[C@@H]3F)n2)cc1NC(=O)c1cnc2cc(Nc3c(C)cccc3C)ccn12 [Compound I-293] | 50 to 500 |  |  | 4.55 | 0.02 10^−6 cm/s |  | *** (a solubility greater than 2 μM and less than or equal to 10 μM)
6 | COC1(OC)CCC1c1nc(-c2ccc(C)c(NC(=O)c3cnc4ccccn34)c2)no1 (racemic) [Compound I-308] | ≤ 50 |  |  | 1.13 | 16.3 10^−6 cm/s |  | *** (a solubility greater than 2 μM and less than or equal to 10 μM)
7 | Cc1ccc(-c2noc(C3(C)CC(F)C3)n2)cc1NC(=O)c1cnc2ccccn12 (stereo not drawn) [Compound I-386] | ≤ 50 |  |  | 1.56 | 11.4 10^−6 cm/s |  | **** (a solubility less than or equal to 2 μM)
8 | COCC1(c2nc(-c3ccc(C)c(NC(=O)c4cnc5ccccn45)c3)no2)CC(F)(F)C1 [Compound I-378] | ≤ 50 |  |  | 0.77 | 16 10^−6 cm/s |  | **** (a solubility less than or equal to 2 μM)

The next lines start with results.

Row | IC50 [1] [nM] | IC50 [3] [nM] | IC50 [4] [nM] | MDCK-BCRP: Efflux Ratio [5] | MDCK-BCRP: Papp A-B [5] | IC50 [6] [nM] | SMILES | Solubility (μM) [2]
9 | ≤ 50 | ≤ 50 | ≤ 50 |  |  |  | Cc1ccc(Nc2ccn3c(C(=O)Nc4cc(-c5noc([C@H]6C[C@@H]6F)n5)ccc4C)cnc3c2)cc1 [Compound I-302] | **** (a solubility less than or equal to 2 μM)
10 | ≤ 50 |  |  | 0.91 | 12.3 10^−6 cm/s |  | Cc1ccc(-c2noc(C3(C(F)F)CC(F)(F)C3)n2)cc1NC(=O)c1cnc2ccccn12 [Compound I-355] | **** (a solubility less than or equal to 2 μM)
11 | 50 to 500 |  |  | 11.6 | 0.31 10^−6 cm/s |  | Cc1ccc(-c2noc(C3CN(C(N)=O)C3)n2)cc1NC(=O)c1cnc2ccccn12 [Compound I-268] | * (a solubility greater than 50 μM)
12 | ≤ 50 |  |  | 16.9 | 1.81 10^−6 cm/s | 50 to 500 | COC(=O)N1CC(c2nc(-c3ccc(C)c(NC(=O)c4cnc5ccc(OC[C@H](C)O)cn45)c3)no2)C1 [Compound I-246] | **** (a solubility less than or equal to 2 μM)
13 | ≤ 50 |  |  | 2.56 | 16.6 10^−6 cm/s |  | Cc1ccc(-c2noc(C3CC(O)(c4ccccc4)C3)n2)cc1NC(=O)c1cnc2ccccn12 (stereo not drawn) [Compound I-349] | **** (a solubility less than or equal to 2 μM)
14 | ≤ 50 |  |  | 1.33 | 40.1 10^−6 cm/s |  | COC1(OC)CC(c2nc(-c3ccc(C)c(NC(=O)c4cnc5ccccn45)c3)no2)C1 [Compound I-346] | *** (a solubility greater than 2 μM and less than or equal to 10 μM)
15 | 50 to 500 |  |  | 1.75 | 2.63 10^−6 cm/s |  | CC(C)(C)OC(=O)N1CC(c2nc(-c3ccc(Br)c(NC(=O)c4cnc5ccccn45)c3)no2)C1 [Compound I-332] | **** (a solubility less than or equal to 2 μM)
16 | ≤ 50 |  |  | 12.1 | 2.13 10^−6 cm/s |  | Cc1ccc(-c2noc(C3CCCN3)n2)cc1NC(=O)c1cnc2ccccn12 (racemic) [Compound I-391] | * (a solubility greater than 50 μM)
